The record followed here is patent US20240181081A1, “Compositions and Methods for Treatment of Myotonic Dystrophy Type 1 with CRISPR/SACAS9” (Vertex Pharmaceuticals Incorporated, priority 2021, published 2024).

Data set [1] has as its system CTG repeat expansion in the 3′ UTR of human DMPK gene. As to the kind of experiment: DOUBLE-cut screening: CTG repeat excision by loss-of-signal ddPCR in primary DM1 patient myoblasts. To be noted: sgRNA pair RNP, mean of upstream and downstream ddPCR assays; for % of CTG repeat excision efficiency by ddPCR (DNA-PKi): 3 μM Compound 6 for 48 hrs; for % of CTG repeat excision efficiency by ddPCR (Vehicle): DMSO 48 hrs. It is filed as cell-based. As to the method:
(§1) RNPs were assembled with recombinant SaCas9 protein (Aldevron) and chemically modified sgRNAs (Synthego) at a ratio of 1:3 (protein:sgRNA). For SINGLE-cut screening, RNP complexes were assembled with 30 pmol of SaCas9 and 90 pmol of sgRNA in P5 Primary Cell Nucleofector Solution (Lonza). After incubation at room temperature for 20 minutes, 10 μL of RNP complex was mixed with two hundred thousand primary myoblasts resuspended in 10 μL of P5 Nucleofector Solution. For DOUBLE-cut screening, RNP complexes were first assembled for individual sgRNAs with 20 pmol of SaCas9 protein and 60 pmol of sgRNAs in 5 μL of P5 Nucleofector Solution. After incubation at room temperature for 20 minutes, the two RNP complexes (one for upstream sgRNA and one for downstream sgRNA) were mixed at 1:1 ratio and then further mixed with two hundred thousand primary myoblasts resuspended in 10 μL of P5 Nucleofector Solution.
(§2) The Nucleofector 96-well Shuttle System (Lonza) was used to deliver the SaCa9/sgRNA RNPs into primary DM1 patient myoblasts using the nucleofection program CM138. Following nucleofection, myoblasts from each well of nucleofection shuttle were split into six wells of the 96-well cell culture plate (Greiner, 655090) coated with matrigel. The first three wells were treated with DMSO for 48 hrs before changing to fresh myoblast growth medium, and the other three wells were treated with 3 μM of DNA-PKi Compound 6 for 48 hrs before changing to fresh myoblast growth medium. 72 hrs post nucleofection, two wells of DMSO-treated myoblasts and two wells of DNA-PKi-treated myoblasts from each nucleofection were harvested for genomic DNA extraction using the Kingfisher Flex purification system (Thermal Fisher), whereas one well of DMSO-treated myoblasts and one well of DNA-PKi-treated myoblasts were stained for RNA foci by FISH staining.
The primers and probes of ddPCR were designed using the online primer design software Primer3Plus (http://www.bioinformatics.nl/cgi-bin/primer3plus/primer3plus.cgi). The two Target primers/probe sets were used to detect CTG repeat excision, and the Reference primers/probe set was used to amplify a region located in Exon 1 of human DMPK gene and it served as a reference control for the Target sets. The 24 μL of ddPCR reaction consisted of 12 μL of Supermix for Probes (no dUTP) (Bio-Rad Laboratories), 1 μL of Reference primers mix (21.6 μM), 1 μL of Reference probe (6 μM), 1 μL of Target primers mix (21.6 μM), 1 μL of Target probe (6 μM), and 8 μL of sample genomic DNA. Droplets were generated using probe oil with the QX200 Droplet Generator (Bio-Rad Laboratories). Droplets were transferred to a 96-well PCR plate, sealed and cycled in a C1000 deep well Thermocycler (Bio-Rad Laboratories) under the following cycling protocol: 1 cycle at 95° C. for 10 min; 40 cycles of 94° C. for 30 sec, and 58° C. for 1 min; 1 cycle at 98° C. for 10 min (for enzyme inactivation). The cycled plate was then transferred and read in the FAM and HEX channels using the Bio-Rad QX200 Droplet Reader (Bio-Rad Laboratories). ddPCR analysis was performed with the Bio-Rad QuantaSoft Pro Software.
Next, DOUBLE-cut screening was performed to assess the efficiency of paired sgRNAs-induced CTG repeat excision and RNA foci reduction. 90 SaCas9 sgRNA pairs formed by one upstream sgRNA and one downstream sgRNA were assembled with recombinant SaCas9 protein into RNP complex and nucleofected into primary DM1 patient myoblasts. Nucleofected myoblasts were treated with either DMSO (vehicle) or 3 μM of Compound 6 (DNA-PKi) for 48 hrs. 72 hrs post nucleofection, myoblasts were subjected to either genomic DNA isolation or RNA foci staining.
One upstream and one downstream loss-of-signal droplet digital PCR (ddPCR) assays were used to determine the efficiency of CTG repeat excision. ddPCR signals would be abolished upon excision of the CTG repeat expansion in these loss-of-signal ddPCR assays. […]

Data set [2] has as its system CUG RNA foci in primary DM1 patient myoblasts. As to the kind of experiment: DOUBLE-cut screening: FISH staining of RNA foci in primary DM1 patient myoblasts. To be noted: sgRNA pair RNP, 72 hrs post nucleofection; for % of CUG foci free nuclei (DNA-PKi): 3 μM Compound 6 for 48 hrs; for % of CUG foci free nuclei (Vehicle): DMSO 48 hrs. It is filed as cell-based, human. As to the method: as §1, §2
Primary myoblasts were fixed for 15 min with 4% paraformaldehyde (PFA) and washed five times with 1×PBS for 10 min each at room temperature. Before staining, cells were permeabilized with 0.5% triton X-100 in 1×PBS for 5 min at room temperature, and then washed with 30% formamide and 2× saline-sodium citrate (SSC) mixture for 10 min at room temperature. Cells were then stained with 1 ng/μL of Cy3-PNA(CAG) 5 probe (PNA Bio, F5001) diluted in 30% formamide, 2×SSC, 2 μg/mL BSA, 66 μg/mL yeast tRNA, and 2 mM vanadyl complex for 15 min at 80° C. Following probe staining, cells were then washed in 30% formamide and 2×SSC mixture for 30 min at 42° C., then washed in 30% formamide and 2×SSC mixture for 30 min at 37° C., and then washed in 1×SSC solution for 10 min at room temperature, and finally washed in 1×PBS for 10 min at room temperature. Cells were next stained with anti-MBNL1 antibody (Santa Cruz, 3A4) diluted in 1% bovine serum albumin (BSA) for overnight at 4° C., and washed twice with 1×PBS for 10 min each at room temperature. Cells were then incubated with the secondary antibody goat […] Alexa 647 (Thermo Fisher, A32728) diluted in 1% BSA for 1 hr at room temperature, and washed twice with 1×PBS for 10 min each at room temperature. Next, cells were stained with Hoechst solution (Thermo Fisher, H3569) at 0.1 mg/ml for 5 min, and washed once with 1×PBS for 5 min. PBS was aspirated and fresh 100 μl of fresh PBS was added to each well. High-throughput acquisition of images was completed with the ImageXpress Micro Confocal High-Content Imaging System (Molecular Devices). RNA foci quantifications were accomplished with a customized analysis module of the MetaXpress program (Molecular Devices).
Next, DOUBLE-cut screening was performed to assess the efficiency of paired sgRNAs-induced CTG repeat excision and RNA foci reduction. 90 SaCas9 sgRNA pairs formed by one upstream sgRNA and one downstream sgRNA were assembled with recombinant SaCas9 protein into RNP complex and nucleofected into primary DM1 patient myoblasts. […]

“SaU2 + SaD12: SaCas9 sgRNA pair, SEQ ID NOs: 2 and 20 (guide 1 ACTCAGTCTTCCAACGGGGCCC; guide 2 TCAGTGCATCCAAAACGTGGAT; listed as DNA, chemistry not fully specified)”: in data set [1], the “% of CTG repeat excision efficiency by ddPCR (DNA-PKi)” value was determined as 58.68% and the “% of CTG repeat excision efficiency by ddPCR (Vehicle)” value came to 36.47%. In data set [2], the “% of CUG foci free nuclei (DNA-PKi)” value is reported as 83.77% and the “% of CUG foci free nuclei (Vehicle)” value worked out at 76.56%.

Take “SaU2 + SaD13: SaCas9 sgRNA pair, SEQ ID NOs: 2 and 21 (guide 1 ACTCAGTCTTCCAACGGGGCCC; guide 2 CCCAACAACCCCAATCCACGTT; listed as DNA, chemistry not fully specified)”: in data set [1], the “% of CTG repeat excision efficiency by ddPCR (DNA-PKi)” value is listed as 51.47% and the “% of CTG repeat excision efficiency by ddPCR (Vehicle)” value came out at 30.92%. Moreover, in data set [2], the “% of CUG foci free nuclei (DNA-PKi)” value stood at 75.83% and the “% of CUG foci free nuclei (Vehicle)” value turned out to be 39.86%.

Turning to “SaU2 + SaD15: SaCas9 sgRNA pair, SEQ ID NOs: 2 and 23 (guide 1 ACTCAGTCTTCCAACGGGGCCC; guide 2 GACAATAAATACCGAGGAATGT; listed as DNA, chemistry not fully specified)”, in data set [1], the “% of CTG repeat excision efficiency by ddPCR (DNA-PKi)” value came out at 60.64% and the “% of CTG repeat excision efficiency by ddPCR (Vehicle)” value came to 41.70%. For the same substance, in data set [2], the “% of CUG foci free nuclei (DNA-PKi)” value is given as 85.85% and the “% of CUG foci free nuclei (Vehicle)” value turned out to be 76.57%.

On to “SaU2 + SaD17: SaCas9 sgRNA pair, SEQ ID NOs: 2 and 25 (guide 1 ACTCAGTCTTCCAACGGGGCCC; guide 2 TTTATTCGCGAGGGTCGGGGGT; listed as DNA, chemistry not fully specified)”, for which, in data set [1], the “% of CTG repeat excision efficiency by ddPCR (DNA-PKi)” value is 52.34% and the “% of CTG repeat excision efficiency by ddPCR (Vehicle)” value came out at 31.11%. Also, in data set [2], the “% of CUG foci free nuclei (DNA-PKi)” value is given as 78.68% and the “% of CUG foci free nuclei (Vehicle)” value is on record as 55.20%.

Turning to “SaU2 + SaD18: SaCas9 sgRNA pair, SEQ ID NOs: 2 and 26 (guide 1 ACTCAGTCTTCCAACGGGGCCC; guide 2 GGGCCTTTTATTCGCGAGGGTC; listed as DNA, chemistry not fully specified)”, in data set [1], the “% of CTG repeat excision efficiency by ddPCR (DNA-PKi)” value is 48.16% and the “% of CTG repeat excision efficiency by ddPCR (Vehicle)” value was 19.28%. In addition, in data set [2], the “% of CUG foci free nuclei (DNA-PKi)” value is reported as 69.93% and the “% of CUG foci free nuclei (Vehicle)” value was found to be 32.87%.

With “SaU2 + SaD19: SaCas9 sgRNA pair, SEQ ID NOs: 2 and 27 (guide 1 ACTCAGTCTTCCAACGGGGCCC; guide 2 AGGACCCCCACCCCCGACCCTC; listed as DNA, chemistry not fully specified)”, in data set [1], the “% of CTG repeat excision efficiency by ddPCR (DNA-PKi)” value is listed as 56.62% and the “% of CTG repeat excision efficiency by ddPCR (Vehicle)” value is listed as 49.08%. Further, in data set [2], the “% of CUG foci free nuclei (DNA-PKi)” value stood at 80.94% and the “% of CUG foci free nuclei (Vehicle)” value is recorded as 62.27%.

Regarding “SaU2 + SaD20: SaCas9 sgRNA pair, SEQ ID NOs: 2 and 28 (guide 1 ACTCAGTCTTCCAACGGGGCCC; guide 2 AGATGGAGGGCCTTTTATTCGC; listed as DNA, chemistry not fully specified)”, in data set [1], the “% of CTG repeat excision efficiency by ddPCR (DNA-PKi)” value was determined as 61.08% and the “% of CTG repeat excision efficiency by ddPCR (Vehicle)” value amounted to 36.35%. Also, in data set [2], the “% of CUG foci free nuclei (DNA-PKi)” value is 82.08% and the “% of CUG foci free nuclei (Vehicle)” value turned out to be 74.86%.

Take “SaU3 + SaD2: SaCas9 sgRNA pair, SEQ ID NOs: 3 and 10 (guide 1 ACTCCGGGGCCCCGTTGGAAGA; guide 2 TCGGCCAGGCTGAGGCCCTGAC; listed as DNA, chemistry not fully specified)”: in data set [1], the “% of CTG repeat excision efficiency by ddPCR (DNA-PKi)” value worked out at 54.49% and the “% of CTG repeat excision efficiency by ddPCR (Vehicle)” value came out at 50.85%. For the same substance, in data set [2], the “% of CUG foci free nuclei (DNA-PKi)” value is recorded as 82.73% and the “% of CUG foci free nuclei (Vehicle)” value is given as 77.08%.

As to “SaU3 + SaD3: SaCas9 sgRNA pair, SEQ ID NOs: 3 and 11 (guide 1 ACTCCGGGGCCCCGTTGGAAGA; guide 2 CAACGATAGGTGGGGGTGCGTG; listed as DNA, chemistry not fully specified)”, in data set [1], the “% of CTG repeat excision efficiency by ddPCR (DNA-PKi)” value turned out to be 57.46% and the “% of CTG repeat excision efficiency by ddPCR (Vehicle)” value is recorded as 36.25%. Further, in data set [2], the “% of CUG foci free nuclei (DNA-PKi)” value was determined as 78.72% and the “% of CUG foci free nuclei (Vehicle)” value turned out to be 51.28%.

With “SaU3 + SaD4: SaCas9 sgRNA pair, SEQ ID NOs: 3 and 12 (guide 1 ACTCCGGGGCCCCGTTGGAAGA; guide 2 ACTTTGCGAACCAACGATAGGT; listed as DNA, chemistry not fully specified)”, in data set [1], the “% of CTG repeat excision efficiency by ddPCR (DNA-PKi)” value was determined as 64.28% and the “% of CTG repeat excision efficiency by ddPCR (Vehicle)” value was determined as 47.22%. For the same substance, in data set [2], the “% of CUG foci free nuclei (DNA-PKi)” value came to 87.42% and the “% of CUG foci free nuclei (Vehicle)” value is given as 83.67%.

On to “SaU3 + SaD5: SaCas9 sgRNA pair SaU3 and SaD5; table prints SEQ ID NOS: 2 and 13 (guide 1 ACTCCGGGGCCCCGTTGGAAGA; guide 2 GGGTTTGGCAAAAGCAAATTTC; listed as DNA, chemistry not fully specified)”, for which, in data set [1], the “% of CTG repeat excision efficiency by ddPCR (DNA-PKi)” value was determined as 60.74% and the “% of CTG repeat excision efficiency by ddPCR (Vehicle)” value is on record as 43.61%. Also, in data set [2], the “% of CUG foci free nuclei (DNA-PKi)” value is 84.63% and the “% of CUG foci free nuclei (Vehicle)” value was 73.56%.

Regarding “SaU3 + SaD6: SaCas9 sgRNA pair, SEQ ID NOs: 3 and 14 (guide 1 ACTCCGGGGCCCCGTTGGAAGA; guide 2 CTTTTGCCAAACCCGCTTTTTC; listed as DNA, chemistry not fully specified)”, in data set [1], the “% of CTG repeat excision efficiency by ddPCR (DNA-PKi)” value was 50.32% and the “% of CTG repeat excision efficiency by ddPCR (Vehicle)” value turned out to be 24.10%. Besides, in data set [2], the “% of CUG foci free nuclei (DNA-PKi)” value turned out to be 64.84% and the “% of CUG foci free nuclei (Vehicle)” value was determined as 31.37%.
